According to patent US6566550B2, “Substituted aromatic ethers as inhibitors of glycine transport” (Pfizer Inc, priority 2001, dated 2003):

Legend:
[1] = system: NMDA receptor; settings: effect blocked by a specific NMDA-site antagonist and a glycine-site antagonist; cited from earlier work

SMILES	melting point	post synaptic current driven by the NMDA receptor [1]
CN(CCC(Oc1ccc(Oc2cccc3c2CCCC3)cc1)c1ccc(F)cc1)CC(=O)O (stereo not drawn)	60 to 61 °C	
COc1ccc(Oc2ccc(OC(CCN(C)CC(=O)O)c3ccccc3)cc2OC)cc1 (stereo not drawn)	60.1 °C	
COc1cc(OC(CCN(C)CC(=O)O)c2ccccc2)ccc1Oc1ccccc1 (stereo not drawn)	77.5 °C	
COc1cc(OC(CCN(C)CC(=O)O)c2ccc(F)cc2)ccc1Oc1ccccc1 (stereo not drawn)	139.5 °C	
Cc1ccc(Oc2ccc(OC(CCN(C)CC(=O)O)c3ccc(F)cc3)c(Cl)c2)cc1 (stereo not drawn)	129.3 °C	
COc1cccc(Oc2cc(OC(CCN(C)CC(=O)O)c3ccc(F)cc3)ccc2C)c1 (stereo not drawn)	55 to 57 °C	
COc1ccc(Oc2cc(OC(CCN(C)CC(=O)O)c3ccc(F)cc3)ccc2C)cc1 (stereo not drawn)	63 to 65 °C	
Cc1ccc(OC(CCN(C)CC(=O)O)c2ccc(F)cc2)cc1Oc1ccc2c(c1)OCO2 (stereo not drawn)	185 to 188 °C	
CN(CCC(Oc1ccc(-c2ccccc2)cc1)c1ccc(F)cc1)CC(=O)O (stereo not drawn) [NFPS]		increased the post synaptic current driven by the NMDA receptor
